Data published in patent US12012413B2, “Methods of treating painful diabetic peripheral neuropathy” (Tenacia Biotechnology (Hong Kong) Co., Limited, priority 2019, dated 2024).
Values after ≈ are worked out from the molar mass of the structure shown. Read-outs that look alike come from different tables or passages of the source.

Columns and labels:
Type in all cases: physicochemical
[1] = Solid form conversion / physical stability (XRPD); settings: ambient conditions of temperature and humidity; versus anhydrous Forms A, B, and C
Experimental: X-ray powder diffraction (XRPD) analysis was carried out on a Stoe Stadi P with Mythen1K detector; Cu-Kα1 radiation; 40 kV and 40 mA tube power; curved Ge monochromator; 0.02° 2θ step size, 12 s step time, 1.5-50.5° 2θ scanning range; detector mode: step scan; 1° 2θ detector step. The sample (about 20 mg) was placed between two acetate foils and clamped in a Stoe transmission sample holder. The sample holder was rotated during the measurement.
X-ray powder diffraction (XRPD) analysis was also carried out on a on a Bruker D8 Advance; Cu-Kα radiation; standard measurement conditions: Bragg-Brentano reflection geometry; 40 kV and 40 mA tube power; LynxEye detector; 0.02° 2θ step size, 37 s step time, 2.5-50.5° 2θ scanning range (about 10 min measurement time. The sample was spread on a silicon single crystal substrate without cavity and flattened to fit to the 0.1 mm depth of the sample holder.
Crystalline, anhydrous Form C material of 3-hydroxy-2-(5-isobutyryl-1-oxo-2,5-diazaspiro[3.4]octan-2-yl)butanamide is not stable in comparison to anhydrous Form A or anhydrous Form B under ambient conditions of temperature and humidity. […] In turn, anhydrous Form A and anhydrous Form B each convert to monohydrate Form MH under the conditions described above.

[2] = Dynamic vapor sorption (DVS) profile
Description: FIG. 4 depicts the dynamic sorption vapor (DVS) profile of crystalline, monohydrate Form MH of NYX-2925. […] This is a fully reversible process and the sample loses this water when decreasing the relative humidity with a negligible hysteresis. At low relative humidity there is the release and uptake of about 5.5 wt. % in the range of about 0% to about 15% relative humidity with about 10% relative humidity hysteresis. The monohydrate Form MH of NYX-2925 retains about 5.7 weight % water content, corresponding to the stoichiometric water content of the, monohydrate, over the range of about 10% to about 80% relative humidity with less than 0.5 wt. % change. There is minimal water uptake above 80% relative humidity and about 1 weight % gain in the 90% to 95% relative humidity range.

[3] = Stability of monohydrate drug substance and oral capsules on storage
Description: NYX-2925 monohydrate drug product was formulated with the pharmaceutically acceptable excipients: microcrystalline cellulose, starch, and magnesium stearate.

[4] = Solubility and stability of saturated solutions in pH 2-8 buffers at 25° C. (HPLC); settings: for solubility at 1 day / solubility at 4 days / solubility at 7 days: ca. 25° C., read-out: solubility in an aqueous solvent; for solubility at 1 day: after about 1 day; for solubility at 4 days: after about 4 days; for solubility at 7 days: after about 7 days
Experimental: Crystalline, monohydrate Form MH of (2S,3R)-3-hydroxy-2-((R)-5-isobutyryl-1-oxo-2,5-diazaspiro[3.4]octan-2-yl)butanamide was prepared as follows. Saturated solutions of 3-hydroxy-2-(5-isobutyryl-1-oxo-2,5-diazaspiro[3.4]octan-2-yl)butanamide were prepared in pH 2, pH 3, pH 5, pH 7, and pH 8 buffers and were stirred at 25° C. Aliquots were taken after 1 day, 4 days, and 7 days and centrifuged at 12,500 rpm for 15 minutes. The supernatant was analyzed for sample concentration by HPLC, and the residual solids were analyzed by XRPD after 1 day, 4 days, and 7 days.

[5] = Approximate solubility by stepwise dilution in solvents and solvent mixtures; settings: 22 °C, about 22° C., read-out: Solubility S
Experimental: Approximate solubilities were determined by a stepwise dilution of a suspension of about 10 mg of substance in 0.05 mL of solvent. If the substance was not dissolved by addition of a total of at least 10 ml solvent, the solubility was indicated as <1 mg/mL. For all experiments, analytical grade solvents were used.
The approximate solubility of crystalline, monohydrate Form MH of NYX-2925 across a range of solvents and solvent mixtures (expressed in volume ratios measured at about 22° C.) is provided in Table 8, below.

[6] = aqueous buffer, pH 2, aqueous buffer, thermodynamic from solid, pH of about 2
[7] = aqueous buffer, pH 3, aqueous buffer, thermodynamic from solid, pH of about 3
[8] = aqueous buffer, pH 5, aqueous buffer, thermodynamic from solid, pH of about 5
[9] = aqueous buffer, pH 7, aqueous buffer, thermodynamic from solid, pH of about 7
[10] = aqueous buffer, pH 8, aqueous buffer, thermodynamic from solid, pH of about 8

relative stability of crystalline forms [1]: more stable | DVS weight gain ([2]; 90% to 95% relative humidity range): about 1 weight % | DVS release and uptake of water (reversible weight loss) ([2]; about 0% to about 15% relative humidity, about 10% RH hysteresis): about 5.5 wt. % | DVS water content retained ([2]; about 10% to about 80% relative humidity): about 5.7 weight % | DVS continuous reversible uptake of water ([2]; from about 50% to about 95% relative humidity, mainly above 90%): about 1.5 wt. % | DVS change in water content ([2]; over about 10% to about 80% relative humidity): less than 0.5 wt. % | changes in impurity profile or other quality attributes (appearance, assay, water content, microbial examination, XRPD) ([3]; 6 months at 40° C./75% relative humidity): no significant changes | changes in impurity profile or other quality attributes (appearance, assay, water content, microbial examination, XRPD) ([3]; 12 months at 25° C./60% relative humidity): no significant changes | solubility at 1 day [4, 6]: ~54.1 mg/mL (≈ 182 mM) | solubility at 4 days [4, 6]: ~53.5 mg/mL (≈ 180 mM) | solubility at 7 days [4, 6]: ~53.5 mg/mL (≈ 180 mM) | solubility at 1 day [4, 7]: ~54.2 mg/mL (≈ 182 mM) | solubility at 4 days [4, 7]: ~53.2 mg/mL (≈ 179 mM) | solubility at 7 days [4, 7]: ~52.4 mg/mL (≈ 176 mM) | solubility at 1 day [4, 8]: ~52.5 mg/mL (≈ 177 mM) | solubility at 4 days [4, 8]: ~53.2 mg/mL (≈ 179 mM) | solubility at 7 days [4, 8]: ~52.4 mg/mL (≈ 176 mM) | solubility at 1 day [4, 9]: ~52.6 mg/mL (≈ 177 mM) | solubility at 4 days [4, 9]: ~53 mg/mL (≈ 178 mM) | solubility at 7 days [4, 9]: ~52.3 mg/mL (≈ 176 mM) | solubility at 1 day [4, 10]: ~52.7 mg/mL (≈ 177 mM) | solubility at 4 days [4, 10]: ~51.6 mg/mL (≈ 174 mM) | solubility at 7 days [4, 10]: ~52.6 mg/mL (≈ 177 mM) | solubility thermodynamic at 7 days ([4]; pH 2, pH 3, pH 5, pH 7 and pH 8 buffers, aqueous buffer, thermodynamic from solid, pH ranges of 2-8, 25° C., after 7 days, read-out: saturated concentration in buffers): ~50 mg/mL (≈ 168 mM) | stability in saturated buffer solutions (HPLC analysis) ([4]; pH ranges of 2-8, 25° C., after 7 days): stable | solubility ([5]; 1,4-dioxane, organic solvent or mixture, thermodynamic from solid, 1,4-dioxane): 28 to 31 mg/mL (≈ 94.2 to 104 mM) | solubility ([5]; 1/1 dichloromethane/methanol (v/v), organic solvent or mixture, thermodynamic from solid, 1/1 dichloromethane/methanol (volume ratio)): > 200 mg/mL | solubility ([5]; 1/1 ethanol/water (v/v), aqueous with cosolvent or surfactant or cyclodextrin, thermodynamic from solid, 1/1 ethanol/water (volume ratio)): 69 to 103 mg/mL | solubility ([5]; 1/1 isopropanol/water (v/v), aqueous with cosolvent or surfactant or cyclodextrin, thermodynamic from solid, 1/1 isopropanol/water (volume ratio)): 71 to 107 mg/mL | solubility ([5]; 1/1 methanol/water (v/v), aqueous with cosolvent or surfactant or cyclodextrin, thermodynamic from solid, 1/1 methanol/water (volume ratio)): > 200 mg/mL | solubility ([5]; 10/1 ethyl acetate/ethanol (v/v), organic solvent or mixture, thermodynamic from solid, 10/1 ethyl acetate/ethanol (volume ratio)): 32 to 39 mg/mL | solubility ([5]; 10/1 isopropanol/water (v/v), organic solvent or mixture, thermodynamic from solid, 10/1 isopropanol/water (volume ratio)): 36 to 41 mg/mL | solubility ([5]; acetone, organic solvent or mixture, thermodynamic from solid, acetone): 57 to 76 mg/mL (≈ 192 to 256 mM) | solubility ([5]; acetonitrile, organic solvent or mixture, thermodynamic from solid, acetonitrile): 118 to 230 mg/mL (≈ 397 to 773 mM) | solubility ([5]; aniline, organic solvent or mixture, thermodynamic from solid, aniline): > 200 mg/mL | solubility ([5]; anisole, organic solvent or mixture, thermodynamic from solid, anisole): ~3 mg/mL (≈ 10.1 mM) | solubility ([5]; cyclohexane, organic solvent or mixture, thermodynamic from solid, cyclohexane): ~1 mg/mL (≈ 3.36 mM) | solubility ([5]; dichloromethane, organic solvent or mixture, thermodynamic from solid, dichloromethane): 55 to 73 mg/mL (≈ 185 to 245 mM) | solubility ([5]; diisopropyl ether, organic solvent or mixture, thermodynamic from solid, diisopropyl ether): < 1 mg/mL | solubility ([5]; dimethyl sulfoxide, organic solvent or mixture, thermodynamic from solid, dimethyl sulfoxide): > 200 mg/mL | solubility ([5]; dimethylformamide, organic solvent or mixture, thermodynamic from solid, dimethylformamide): > 200 mg/mL | solubility ([5]; ethanol, organic solvent or mixture, thermodynamic from solid, ethanol): > 200 mg/mL | solubility ([5]; ethyl acetate saturated with water, organic solvent or mixture, thermodynamic from solid, ethyl acetate saturated with water): 6 to 8 mg/mL (≈ 20.2 to 26.9 mM) | solubility ([5]; ethyl acetate, organic solvent or mixture, thermodynamic from solid, ethyl acetate): 13 to 15 mg/mL (≈ 43.7 to 50.4 mM) | solubility ([5]; heptane, organic solvent or mixture, thermodynamic from solid, heptane): < 1 mg/mL | solubility ([5]; isopropanol, organic solvent or mixture, thermodynamic from solid, isopropanol): 45 to 60 mg/mL (≈ 151 to 202 mM) | solubility ([5]; isopropyl acetate, organic solvent or mixture, thermodynamic from solid, isopropyl acetate): 5 to 6 mg/mL (≈ 16.8 to 20.2 mM) | solubility ([5]; methanol, organic solvent or mixture, thermodynamic from solid, methanol): > 200 mg/mL | solubility ([5]; methyl ethyl ketone, organic solvent or mixture, thermodynamic from solid, methyl ethyl ketone): 32 to 38 mg/mL (≈ 108 to 128 mM) | solubility ([5]; tert-butyl methyl ether saturated with water, organic solvent or mixture, thermodynamic from solid, tert-butyl methyl ether saturated with water): < 1 mg/mL | solubility ([5]; tert-butyl methyl ether, organic solvent or mixture, thermodynamic from solid, tert-butyl methyl ether): < 1 mg/mL | solubility ([5]; tetrahydrofuran, organic solvent or mixture, thermodynamic from solid, tetrahydrofuran): 31 to 36 mg/mL (≈ 104 to 121 mM) | solubility ([5]; toluene, organic solvent or mixture, thermodynamic from solid, toluene): < 1 mg/mL | solubility ([5]; triethylamine, organic solvent or mixture, thermodynamic from solid, triethylamine): < 1 mg/mL | solubility ([5]; water, water, thermodynamic from solid, water): 26 to 30 mg/mL (≈ 87.4 to 101 mM)
Compound: CC(C)C(=O)N1CCC[C@]12CN([C@H](C(N)=O)[C@@H](C)O)C2=O [Form MH, (2S,3R)-3-hydroxy-2-((R)-5-isobutyryl-1-oxo-2,5-diazaspiro[3.4]octan-2-yl)butanamide]
